Data: PMC11992225, “Antibacterial compounds against non-growing and intracellular bacteria” (npj Antimicrobials and Resistance, 2025)
Several values for one entry are separate records, joined by “and”; a condition that tells them apart may be missing. Identical values can stand only once. Like-named read-outs stand apart in the source and are kept apart here.

Legend:
[1] = test system: non-growing S. aureus DSM2569; experiment: Dilution-regrowth assay (OD600, start-growth-time) on stationary-phase S. aureus; format: cell-based, Staphylococcus aureus; conditions: S. aureus; for Regrowth, OD600 at 6h or 8h after dilution into drug-free medium: average; for EC50: regrowth delay of non-growing bacteria, 1:4 CA-MHB pH 7.4, 24 h treatment, OD600 8 h after dilution, read-out: EC50; for Regrowth: OD600 after dilution into drug-free medium (mean): OD600 at 6h or 8h
Experimental: (§1) The cultures were grown and treated for 24 h in 1:4 CA-MHB (pH 7.4).
This approach allowed us to capture the time when cultures reached a threshold optical density (start-growth-time, SGT[15]).
The cultures were incubated for 24 h in non-baffled Erlenmeyer flasks at 37 °C with shaking at 200 rpm.
For P. aeruginosa and S. aureus, dose–response analysis was conducted in 96-well plates with a 200 μl assay volume, following the procedure used for screening assay validation experiments. […] Stock solutions were prepared and stored according to the manufacturers’ instructions, then diluted in 10% DMSO before use. Cultures were incubated for 24 h in 1:4 diluted CA-MHB medium under the same conditions used for UPEC cultivation. In preliminary experiments, each compound was tested at a concentration of 20 μM in the dilution-regrowth assay with 4 technical replicates. Regrowth was monitored using a microplate reader at 37 °C with continuous shaking, and OD600 was recorded every 20 min. The time at which OD600 exceeded the threshold of 0.12 was recorded as the Start_Growth-Time.
Statistical significance of the drug effects was assessed using a one-way ANOVA followed by Dunnett’s test, comparing each treatment to the drug-free control. Statistical significance of the differences in chemical characteristics between the hit compounds and the Prestwick library was assessed using a Mann–Whitney test. Statistical significance was set at P ≤ 0.05. A five-parameter logistic equation was used for asymmetric sigmoidal curve fitting and for EC50 and IC50 determination. The Venn diagram in Fig. 1F was prepared using BioVenn web application. Characteristics of the chemical and physical properties of Prestwick library compounds were obtained from Supplementary Table S1 from reference. Characteristics of the hit compounds not included in the Prestwick library were retrieved from the PubChem database.

[2] = test system: non-growing P. aeruginosa DSM1117; experiment: Dose-dependent killing analysis (CFU spot-plating) of stationary-phase P. aeruginosa; format: cell-based, Pseudomonas aeruginosa; conditions: for log10(CFU/ml) after treatment / killing, average Δlog10(CFU/ml): P. aeruginosa; for log10(CFU/ml) after treatment: individual replicates; for killing, average Δlog10(CFU/ml): vs CFU before treatment; for reduction of bacterial counts, non-growing P. aeruginosa: at 2.5 µM, 1:4 CA-MHB pH 7.4, 24 h treatment
Experimental: as §1
(§2) For survival analysis, bacteria were cultivated as described for the dose–response dilution-regrowth assay. Assays with UPEC were conducted at the CBCS screening facility using 96-well plates with a 200 μl sample volume, and compounds were dispensed using the Echo® (Labcyte) system. P. aeruginosa and S. aureus samples were treated according to the protocol used for the dilution-regrowth experiments. Treated samples were serially diluted 10-fold in PBS, and 10 μl drops were spot-plated onto rectangular LB agar plates using either a Beckman NXP robot (for UPEC) or an Integra VIAFLO96 electronic pipette (for P. aeruginosa and S. aureus). The LB agar plates were incubated overnight at 37 °C and scanned. Colonies were counted at the spots of the lowest dilution where individual colonies could be accurately distinguished. Each colony was manually marked on a separate image layer using the GNU Image Manipulation Program, and counted using NIST’s Integrated Colony Enumerator (NICE 1.4) software. The experiments were performed in three biological replicates.

[3] = test system: non-growing S. aureus DSM2569; experiment: Dose-dependent killing analysis (CFU spot-plating) of stationary-phase S. aureus;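 on average Δlog10(CFU/ml) (killing): drug concentration in µM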; format: cell-based, Staphylococcus aureus; conditions: S. aureus; for log10(CFU/ml) after treatment: individual replicates; for average Δlog10(CFU/ml) (killing) / Killing: average Δlog10(CFU/ml): vs 9,097 before treatment
Experimental: To determine the spectrum of activity of the compounds that were effective against non-growing UPEC, we further assessed their efficacy against the well-characterized Gram-negative and Gram-positive reference strains P. aeruginosa DSM1117 and S. aureus DSM2569, respectively. The cultures were grown and treated for 24 h in 1:4 CA-MHB (pH 7.4). […].
as §2

`N[C@@H]1CCCCN(c2c(F)cc3c(=O)c(C(=O)O)cn(C4CC4)c3c2Cl)C1` [Besifloxacin] was tested, and the “Regrowth, OD600 at 6h or 8h after dilution into drug-free medium” value ([1]; concentration 0.1) was 0.576, the “Regrowth, OD600 at 6h or 8h after dilution into drug-free medium” value ([1]; concentration 0.5) was 0.336 and the “Regrowth, OD600 at 6h or 8h after dilution into drug-free medium” value ([1]; concentration 2.5) was 0.134. The “Regrowth, OD600 at 6h or 8h after dilution into drug-free medium” value ([1]; concentration 10) was 0.097, the EC50 ([1]; Staphylococcus aureus, DSM2569) was 401 nM and the “log10(CFU/ml) after treatment” value ([2]; concentration 0.1) was 8.000 log10(CFU/ml) and 8.602 log10(CFU/ml) and 8.204 log10(CFU/ml). For the same compound, the “killing, average Δlog10(CFU/ml)” value ([2]; concentration 0.1) was 0.619 log10(CFU/ml), the “log10(CFU/ml) after treatment” value ([2]; concentration 0.5) was 7.845 log10(CFU/ml) and 7.699 log10(CFU/ml) (2×) and the “killing, average Δlog10(CFU/ml)” value ([2]; concentration 0.5) was 1.140 log10(CFU/ml). For the same compound, the “log10(CFU/ml) after treatment” value ([2]; concentration 2.5) was 5.000 log10(CFU/ml) (2×) and 4.699 log10(CFU/ml), the “killing, average Δlog10(CFU/ml)” value ([2]; concentration 2.5) was 3.988 log10(CFU/ml) and the “log10(CFU/ml) after treatment” value ([2]; concentration 10) was “=<4 log10(CFU/ml) (2×) and 4.301 log10(CFU/ml)”. For the same compound, the “killing, average Δlog10(CFU/ml)” value ([2]; concentration 10) was 4.787 log10(CFU/ml), the “reduction of bacterial counts, non-growing P. aeruginosa” value [2] was “more than four” and the “log10(CFU/ml) after treatment” value ([3]; concentration 0.1) was 9.061 log10(CFU/ml) and 9.079 log10(CFU/ml) and 8.740 log10(CFU/ml). The “log10(CFU/ml) after treatment” value ([3]; concentration 0.5) was 8.398 log10(CFU/ml) and 8.431 log10(CFU/ml) and 8.104 log10(CFU/ml), the “log10(CFU/ml) after treatment” value ([3]; concentration 2.5) was 7.196 log10(CFU/ml) and 7.716 log10(CFU/ml) and 6.826 log10(CFU/ml) and the “log10(CFU/ml) after treatment” value ([3]; concentration 10) was 7.033 log10(CFU/ml) and 7.000 log10(CFU/ml) and 6.100 log10(CFU/ml).

In the case of `NC1CCN(c2c(F)cc3c(=O)c(C(=O)O)cn(C4CC4)c3c2Cl)C1` (stereo not drawn) [Clinafloxacin], the “OD600 at 6h or 8h after dilution into drug-free medium (regrowth)” value ([1]; drug conc 0.1) is reported as 0.489, the “OD600 at 6h or 8h after dilution into drug-free medium (regrowth)” value ([1]; drug conc 0.5) is reported as 0.280 and the “OD600 at 6h or 8h after dilution into drug-free medium (regrowth)” value ([1]; drug conc 2.5) is reported as 0.154. For the same compound, the “OD600 at 6h or 8h after dilution into drug-free medium (regrowth)” value ([1]; drug conc 10) was 0.126, the EC50 ([1]; Staphylococcus aureus, DSM2569) was 205 nM and the “reduction of bacterial counts, stationary phase P. aeruginosa” value ([2]; at 0.5 µM, 24 h treatment) was “more than four”. The “reduction of bacterial counts, non-growing P. aeruginosa” value [2] was “more than four”, the “average Δlog10(CFU/ml) (killing)” value ([3]; drug conc 0.1) was 0.189 log10(CFU/ml) and the “average Δlog10(CFU/ml) (killing)” value ([3]; drug conc 0.5) was 0.859 log10(CFU/ml). The “average Δlog10(CFU/ml) (killing)” value ([3]; drug conc 2.5) was 1.351 log10(CFU/ml) and the “average Δlog10(CFU/ml) (killing)” value ([3]; drug conc 10) was 1.499 log10(CFU/ml).

With `CO[C@H]1/C=C/O[C@@]2(C)Oc3c(C)c(O)c4c(O)c(c(/C=N/N=C/N5CCCCC5)c(O)c4c3C2=O)NC(=O)/C(C)=C\C=C\[C@H](C)[C@H](O)[C@@H](C)[C@@H](O)[C@@H](C)[C@H](OC(C)=O)[C@@H]1C` [FCE-22250] the “Regrowth: OD600 after dilution into drug-free medium (mean)” value ([1]; concentration 0.1) was 0.461, the “Regrowth: OD600 after dilution into drug-free medium (mean)” value ([1]; concentration 0.5) was 0.312 and the “Regrowth: OD600 after dilution into drug-free medium (mean)” value ([1]; concentration 2.5) was 0.178. The “Regrowth: OD600 after dilution into drug-free medium (mean)” value ([1]; concentration 10) was 0.092, the EC50 [1] was 278 nM and the “log10(CFU/ml) after treatment, single replicates” value (“log10(CFU/ml) … single replicates” for short) ([3]; concentration 0.1) was 9.505 log10(CFU/ml) and 8.903 log10(CFU/ml) and 9.033 log10(CFU/ml). The “Killing: average Δlog10(CFU/ml)” value ([3]; concentration 0.1) was -0.050 log10(CFU/ml), the “log10(CFU/ml) … single replicates” value ([3]; concentration 0.5) was 9.107 log10(CFU/ml) and 9.017 log10(CFU/ml) and 8.505 log10(CFU/ml) and the “Killing: average Δlog10(CFU/ml)” value ([3]; concentration 0.5) was 0.221 log10(CFU/ml). The “log10(CFU/ml) … single replicates” value ([3]; concentration 2.5) was 8.929 log10(CFU/ml) and 8.940 log10(CFU/ml) and 8.806 log10(CFU/ml), the “Killing: average Δlog10(CFU/ml)” value ([3]; concentration 2.5) was 0.205 log10(CFU/ml) and the “log10(CFU/ml) … single replicates” value ([3]; concentration 10) was 8.973 log10(CFU/ml) and 9.017 log10(CFU/ml) and 8.944 log10(CFU/ml). The “Killing: average Δlog10(CFU/ml)” value ([3]; concentration 10) was 0.119 log10(CFU/ml).

For `N#Cc1c(N2C[C@@H]3NCCO[C@H]3C2)c(F)cc2c(=O)c(C(=O)O)cn(C3CC3)c12` [Finafloxacin], the EC50 [1] was 4660 nM, the “log10(CFU/ml) after treatment, replicate 1” value (“log10(CFU/ml) … replicate 1” below) ([3]; drug conc. 0.1) was 8.820 log10(CFU/ml) and the “log10(CFU/ml) after treatment, replicate 2” value (“log10(CFU/ml) … replicate 2” for short) ([3]; drug conc. 0.1) was 9.041 log10(CFU/ml). The “log10(CFU/ml) after treatment, replicate 3” value (from here on “log10(CFU/ml) … replicate 3”) ([3]; drug conc. 0.1) was 8.982 log10(CFU/ml), the “average Δlog10(CFU/ml) (killing)” value ([3]; drug conc. 0.1) was 0.149 log10(CFU/ml) and the “log10(CFU/ml) … replicate 1” value ([3]; drug conc. 0.5) was 8.857 log10(CFU/ml). For the same compound, the “log10(CFU/ml) … replicate 2” value ([3]; drug conc. 0.5) was 9.176 log10(CFU/ml), the “log10(CFU/ml) … replicate 3” value ([3]; drug conc. 0.5) was 9.090 log10(CFU/ml) and the “average Δlog10(CFU/ml) (killing)” value ([3]; drug conc. 0.5) was 0.056 log10(CFU/ml). For the same compound, the “log10(CFU/ml) … replicate 1” value ([3]; drug conc. 2.5) was 8.820 log10(CFU/ml), the “log10(CFU/ml) … replicate 2” value ([3]; drug conc. 2.5) was 8.954 log10(CFU/ml) and the “log10(CFU/ml) … replicate 3” value ([3]; drug conc. 2.5) was 8.820 log10(CFU/ml). For the same compound, the “average Δlog10(CFU/ml) (killing)” value ([3]; drug conc. 2.5) was 0.233 log10(CFU/ml), the “log10(CFU/ml) … replicate 1” value ([3]; drug conc. 10) was 8.633 log10(CFU/ml) and the “log10(CFU/ml) … replicate 2” value ([3]; drug conc. 10) was 8.996 log10(CFU/ml). For the same compound, the “log10(CFU/ml) … replicate 3” value ([3]; drug conc. 10) was 8.623 log10(CFU/ml) and the “average Δlog10(CFU/ml) (killing)” value ([3]; drug conc. 10) was 0.346 log10(CFU/ml).

With `CO[C@H]1/C=C/O[C@@]2(C)Oc3c(C)c(O)c4c(O)c(c(/C=N/N5CCN(C6CCCC6)CC5)c(O)c4c3C2=O)NC(=O)/C(C)=C\C=C\[C@H](C)[C@H](O)[C@@H](C)[C@@H](O)[C@@H](C)[C@H](OC(C)=O)[C@@H]1C` [Rifapentine] the “Regrowth: OD600 after dilution into drug-free medium (mean)” value ([1]; concentration 0.1) was 0.215, the “Regrowth: OD600 after dilution into drug-free medium (mean)” value ([1]; concentration 0.5) was 0.149 and the “Regrowth: OD600 after dilution into drug-free medium (mean)” value ([1]; concentration 2.5) was 0.116. For the same compound, the “Regrowth: OD600 after dilution into drug-free medium (mean)” value ([1]; concentration 10) was 0.091, the EC50 ([1]; Staphylococcus aureus, DSM2569) was 41 nM and the “log10(CFU/ml) … single replicates” value ([3]; concentration 0.1) was 8.708 log10(CFU/ml) and 8.968 log10(CFU/ml) and 8.653 log10(CFU/ml). The “Killing: average Δlog10(CFU/ml)” value ([3]; concentration 0.1) was 0.321 log10(CFU/ml), the “log10(CFU/ml) … single replicates” value ([3]; concentration 0.5) was 8.732 log10(CFU/ml) and 8.954 log10(CFU/ml) and 8.491 log10(CFU/ml) and the “Killing: average Δlog10(CFU/ml)” value ([3]; concentration 0.5) was 0.371 log10(CFU/ml). The “log10(CFU/ml) … single replicates” value ([3]; concentration 2.5) was 8.672 log10(CFU/ml) and 8.748 log10(CFU/ml) and 8.643 log10(CFU/ml), the “Killing: average Δlog10(CFU/ml)” value ([3]; concentration 2.5) was 0.409 log10(CFU/ml) and the “log10(CFU/ml) … single replicates” value ([3]; concentration 10) was 8.756 log10(CFU/ml) and 8.477 log10(CFU/ml) and 8.544 log10(CFU/ml). For the same compound, the “Killing: average Δlog10(CFU/ml)” value ([3]; concentration 10) was 0.505 log10(CFU/ml).
